From patent publication US7531195B2, “Schisandrin B preparation” (priority 2005, dated 2009)
Marks after values point to notes of the source that are not given here.

Legend:
Myocardial Mitochondria = experiment: Myocardial mitochondrial glutathione antioxidant status, old male and female rats; type: in vivo, rat; conditions: liposome-encapsulated in drinking water, 10 mg/kg daily, 35 days
Method: Aged male and female rats (˜12 months old) were administered with liposome-encapsulated (−) Schisandrin B in drinking water for 35 days, with the daily dose estimated to be 10 mg/kg.
Male/Female adult Sprague-Dawley rats (˜12 months old) were maintained under a 12-h dark/light cycle at about 22° C. and allowed food and water ad libitum. Animals were randomly divided into groups, with at least 5 animals in each. In the pretreatment groups, rats were treated with liposome-encapsulated (−) Schisandrin B in drinking water for 35 days, with the estimated daily dose of 10 mg/kg. Control animals received empty liposomes-containing drinking water. Twenty-four hours following the last dosing, hearts were isolated from control or drug-pretreated rats and then subjected to Langendorff perfusion as described below.
Myocardial tissue samples were rinsed with ice-cold isotonic buffer (50 mM Tris, 0.32 M sucrose, 1 mM Na2EDTA, 0.2 mg/ml soybean trypsin inhibitor, 0.2 mg/ml bacitracine, 0.16 mg/ml benzamidine). Tissue homogenates were prepared by homogenizing 0.8 g of myocardial tissue in 8 ml ice-cold isotonic buffer and the homogenates were used for the preparation of mitochondrial fractions by differential centrifugation, as described in Chiu and Ko (2004). The mitochondrial pellets were resuspended in 1.5 ml of isotonic buffer containing 150 μl of 2 mg/ml soybean trypsin inhibitor and constituted the mitochondrial fractions.
Aliquots (500 μl) of mitochondrial fractions were taken for measuring mitochondrial GSH level by HPLC methods, using GSH as standards, respectively, as described (Chiu et al 2002). Aliquots (400 μl) of mitochondrial fractions were mixed with 933 μl Triton X-100 solution (0.3%, v/v, in isotonic buffer) and sonicated for 2 min on ice. The mixtures were then subjected to measurements of mitochondrial glutathione reductase (GRD), Se-glutathione peroxidase (GPX) and glutathione S-transferases (GST) activities by spectrophotometric methods, as described in Chiu et al. (2002).

[1] = system: mitochondria of brain, heart, liver and skeletal muscle; experiment: Mitochondrial antioxidant status in various tissues of young female rats; type: in vivo, rat; conditions: (−) Sch B, α-LA, α-Toc at daily 10, 5 and 70 mg/kg respectively, 15 days
Method: The dosages were determined with reference to the equivalent amount of crude herb prescribed for human or the daily recommended intake in health supplements. The control animals received olive oil only. Twenty-four hours after the last dose, the pentobarbital-anesthetized animals were sacrificed by cardiac excision, and brain. heart, liver and skeletal muscle tissues were obtained. Tissue samples (brain, heart, liver, and skeletal muscle) were rinsed with ice-cold isotonic buffer (50 mM Tris, 0.32 M sucrose, 1 mM Na2EDTA, 0.2 mg/ml soybean trypsin inhibitor, 0.2 mg/ml bacitracine, 0.16 mg/ml benzamidine). Tissue homogenates were prepared by homogenizing 0.8 g of myocardial tissue in 8 ml ice-cold isotonic buffer and the homogenates were used for the preparation of mitochondrial fractions by differential centrifugation, as described in Chiu and Ko (2004). The mitochondrial pellets were resuspended in 1.5 ml of isotonic buffer containing 150 μl of 2 mg/ml soybean trypsin inhibitor and constituted the mitochondrial fractions. […] (St. Louis, Mo., USA). […] Aliquots (400 μl) of mitochondrial fractions were mixed with 933 μl Triton X-100 solution (0.3%, v/v, in isotonic buffer) and sonicated for 2 min on ice. The mixtures were then subjected to measurements of mitochondrial glutathione reductase (GRD), Se-glutathione peroxidase (GPX) and glutathione S-transferases (GST) activities by spectrophotometric methods, as described in Chiu et al. (2002).

COc1cc2c(c(OC)c1OC)-c1c(cc3c(c1OC)OCO3)CC(C)C(C)C2 (single isomer, unassigned; (-)) [(−) Sch B, (−) Schisandrin B]
GPX (Myocardial Mitochondria; old female rats (~12 months)): 44.6 ± 4.29 mU/mg Protein | GRD (Myocardial Mitochondria; old female rats (~12 months)): 5.65 ± 0.65 mU/mg protein | GSH (Myocardial Mitochondria; old female rats (~12 months)): 6.80 ± 0.28^b nmol/mg protein | GST (Myocardial Mitochondria; old female rats (~12 months)): 14.0 ± 0.45^b mU/mg protein | GRD, percent increase vs untreated control (Myocardial Mitochondria; old female rats): (13%) | GSH, percent increase vs untreated control (Myocardial Mitochondria; old female rats): (31%) | GPX (Myocardial Mitochondria; old male rats (~12 months)): 52.2 ± 0.72^a mU/mg Protein | GRD (Myocardial Mitochondria; old male rats (~12 months)): 3.72 ± 0.29^a mU/mg protein | GSH (Myocardial Mitochondria; old male rats (~12 months)): 4.43 ± 0.09^a nmol/mg protein | GST (Myocardial Mitochondria; old male rats (~12 months)): 17.5 ± 0.76 mU/mg protein | GPX, percent increase vs untreated control (Myocardial Mitochondria; old male rats): (15%) | GRD, percent increase vs untreated control (Myocardial Mitochondria; old male rats): (39%) | GSH, percent increase vs untreated control (Myocardial Mitochondria; old male rats): (265%) | GPX ([1]; BRAIN): 163 ± 9 percent control | GRD ([1]; BRAIN): 150 ± 9 percent control | GSH ([1]; BRAIN): 147 ± 4 percent control | GST ([1]; BRAIN): 143 ± 4 percent control | α-Toc level ([1]; BRAIN): 141 ± 7 percent control | GPX ([1]; HEART): 143 ± 7 percent control | GRD ([1]; HEART): 163 ± 6 percent control | GSH ([1]; HEART): 159 ± 2 percent control | GST ([1]; HEART): 161 ± 5 percent control | α-Toc level ([1]; HEART): 160 ± 13 percent control | GPX ([1]; LIVER): 135 ± 3 percent control | GRD ([1]; LIVER): 161 ± 10 percent control | GSH ([1]; LIVER): 175 ± 5 percent control | GST ([1]; LIVER): 154 ± 4 percent control | α-Toc level ([1]; LIVER): 167 ± 14 percent control | GPX ([1]; SKELETAL MUSCLE): 125 ± 5 percent control | GRD ([1]; SKELETAL MUSCLE): 166 ± 4 percent control | GSH ([1]; SKELETAL MUSCLE): 137 ± 1 percent control | GST ([1]; SKELETAL MUSCLE): 171 ± 10 percent control | α-Toc level ([1]; SKELETAL MUSCLE): 178 ± 13 percent control
